# Assay results as given in ChEMBL document CHEMBL3632505, “Forsythoneosides A-D, Neuroprotective Phenethanoid and Flavone Glycoside Heterodimers from the Fruits of Forsythia suspensa” (2015).
# Legend:
# PC-12 [1] = experiment: Neuroprotective activity against rotenone-induced cell damage in rat PC12 cells assessed as increase in cell viability after 48 hrs by MTT assay; format: functional, cell-based
# PC-12 [2] = experiment: Neuroprotective activity against rotenone-induced cell damage in rat PC12 cells assessed as cell viability at 0.1 uM after 48 hrs by MTT assay (reference value: 53.9 +/- 7.1%); format: functional; conditions: for viability at 0.1 µM: Rattus norvegicus, PC-12, 48 h, read-out: Activity
# PC-12 [3] = experiment: Neuroprotective activity against rotenone-induced cell damage in rat PC12 cells assessed as cell viability at 1 uM after 48 hrs by MTT assay (reference value: 53.9 +/- 7.1%); format: functional; conditions: for viability at 1 µM: Rattus norvegicus, PC-12, 48 h, read-out: Activity
# PC-12 [4] = experiment: Neuroprotective activity against rotenone-induced cell damage in rat PC12 cells assessed as cell viability at 10 uM after 48 hrs by MTT assay (reference value: 53.9 +/- 7.1%); format: functional; conditions: for viability at 10 µM: Rattus norvegicus, PC-12, 48 h, read-out: Activity
SMILES,Activity (PC-12 [1]),viability at 0.1 µM (PC-12 [2]) [%],viability at 1 µM (PC-12 [3]) [%],viability at 10 µM (PC-12 [4]) [%],also measured
C[C@@H]1O[C@@H](OC[C@H]2O[C@@H](Oc3c(-c4ccc(O)c(O)c4)oc4c5c(cc(O)c4c3=O)Oc3cc(O)c(O)cc3[C@H]5CO[C@@H]3O[C@H](CO[C@@H]4O[C@@H](C)[C@H](O)[C@@H](O)[C@H]4O)[C@@H](OC(=O)/C=C/c4ccc(O)c(O)c4)[C@H](O)[C@H]3O)[C@H](O)[C@@H](O)[C@@H]2O)[C@H](O)[C@H](O)[C@H]1O,Dose-dependent effect,55.8,59.2,81.1,
C[C@@H]1O[C@@H](OC[C@H]2O[C@@H](Oc3c(-c4ccc(O)c(O)c4)oc4c5c(cc(O)c4c3=O)Oc3cc(O)c(O)cc3[C@@H]5CO[C@@H]3O[C@H](CO[C@@H]4O[C@@H](C)[C@H](O)[C@@H](O)[C@H]4O)[C@@H](OC(=O)/C=C/c4ccc(O)c(O)c4)[C@H](O)[C@H]3O)[C@H](O)[C@@H](O)[C@@H]2O)[C@H](O)[C@H](O)[C@H]1O,Dose-dependent effect,70.1,75,91.2,
O=C(/C=C/c1ccc(O)c(O)c1)O[C@H]1[C@H](O)[C@@H](O)[C@H](OCCc2ccc(O)c(O)c2)O[C@@H]1CO[C@@H]1OC[C@@H](O)[C@H](O)[C@H]1O,,,,56.2,
C[C@@H]1O[C@@H](OC[C@H]2O[C@@H](Oc3c(-c4ccc(O)c(O)c4)oc4c(-c5cc(O)c(O)cc5CCO[C@@H]5O[C@H](CO[C@@H]6O[C@@H](C)[C@H](O)[C@@H](O)[C@H]6O)[C@@H](OC(=O)/C=C/c6ccc(O)c(O)c6)[C@H](O)[C@H]5O)c(O)cc(O)c4c3=O)[C@H](O)[C@@H](O)[C@@H]2O)[C@H](O)[C@H](O)[C@H]1O (stereo in doubt; 3) [listing 1 of 2 here],,54.3,64,,Activity (PC-12 [4]): 93.2%
C[C@@H]1O[C@@H](OC[C@H]2O[C@@H](Oc3c(-c4ccc(O)c(O)c4)oc4c(-c5cc(O)c(O)cc5CCO[C@@H]5O[C@H](CO[C@@H]6O[C@@H](C)[C@H](O)[C@@H](O)[C@H]6O)[C@@H](OC(=O)/C=C/c6ccc(O)c(O)c6)[C@H](O)[C@H]5O)c(O)cc(O)c4c3=O)[C@H](O)[C@@H](O)[C@@H]2O)[C@H](O)[C@H](O)[C@H]1O (stereo in doubt; 3) [listing 2 of 2 here],Dose-dependent effect,,,,
C[C@@H]1O[C@@H](OC[C@H]2O[C@@H](Oc3c(-c4ccc(O)c(O)c4)oc4c(-c5cc(O)c(O)cc5CCO[C@@H]5O[C@H](CO[C@@H]6O[C@@H](C)[C@H](O)[C@@H](O)[C@H]6O)[C@@H](OC(=O)/C=C/c6ccc(O)c(O)c6)[C@H](O)[C@H]5O)c(O)cc(O)c4c3=O)[C@H](O)[C@@H](O)[C@@H]2O)[C@H](O)[C@H](O)[C@H]1O (stereo in doubt; 4) [listing 1 of 2 here],,,,96.2,Activity (PC-12 [2]): 67.9%; Activity (PC-12 [3]): 75.5%
C[C@@H]1O[C@@H](OC[C@H]2O[C@@H](Oc3c(-c4ccc(O)c(O)c4)oc4c(-c5cc(O)c(O)cc5CCO[C@@H]5O[C@H](CO[C@@H]6O[C@@H](C)[C@H](O)[C@@H](O)[C@H]6O)[C@@H](OC(=O)/C=C/c6ccc(O)c(O)c6)[C@H](O)[C@H]5O)c(O)cc(O)c4c3=O)[C@H](O)[C@@H](O)[C@@H]2O)[C@H](O)[C@H](O)[C@H]1O (stereo in doubt; 4) [listing 2 of 2 here],Dose-dependent effect,,,,
C[C@@H]1O[C@@H](OC[C@H]2O[C@@H](OCCc3ccc(O)c(O)c3)[C@H](O)[C@@H](O)[C@@H]2OC(=O)/C=C/c2ccc(O)c(O)c2)[C@H](O)[C@H](O)[C@H]1O [FORSYTHIASIDE],,,,60.4,
C[C@@H]1O[C@@H](OC[C@H]2O[C@@H](Oc3c(-c4ccc(O)c(O)c4)oc4cc(O)cc(O)c4c3=O)[C@H](O)[C@@H](O)[C@@H]2O)[C@H](O)[C@H](O)[C@H]1O [RUTIN],,,,67.9,
COC1=C(OC)C(=O)C(C/C=C(\C)CC/C=C(\C)CC/C=C(\C)CC/C=C(\C)CC/C=C(\C)CC/C=C(\C)CC/C=C(\C)CC/C=C(\C)CC/C=C(\C)CCC=C(C)C)=C(C)C1=O [UBIDECARENONE],,,,59,
